This note sets out measurements from patent US20230304010A1, “COMPOSITIONS AND METHODS FOR TREATING VIRAL INFECTIONS” (priority 2020, published 2023).

Like-named read-outs stand apart in the source and are kept apart here.

The subject of data set [1] is SARS-CoV-2.
In data set [2] the target is SARS-CoV-2 Spike: ACE2 interaction (UniProt P0DTC2+Q9BYF1). Kind of data set: biochemical. It counts as binding.
Data set [3] has as its system SARS-CoV-2. This is another data set of the same source.
In data set [4] the target is ACE2:SARS-CoV-2 Spike interaction (UniProt P0DTC2+Q9BYF1). Description: biochemical. It is filed as binding. As to conditions: IC50, SARS-COV2.
Sequence of ACE2:SARS-CoV-2 Spike interaction (Q9BYF1 18-740, one chain of several): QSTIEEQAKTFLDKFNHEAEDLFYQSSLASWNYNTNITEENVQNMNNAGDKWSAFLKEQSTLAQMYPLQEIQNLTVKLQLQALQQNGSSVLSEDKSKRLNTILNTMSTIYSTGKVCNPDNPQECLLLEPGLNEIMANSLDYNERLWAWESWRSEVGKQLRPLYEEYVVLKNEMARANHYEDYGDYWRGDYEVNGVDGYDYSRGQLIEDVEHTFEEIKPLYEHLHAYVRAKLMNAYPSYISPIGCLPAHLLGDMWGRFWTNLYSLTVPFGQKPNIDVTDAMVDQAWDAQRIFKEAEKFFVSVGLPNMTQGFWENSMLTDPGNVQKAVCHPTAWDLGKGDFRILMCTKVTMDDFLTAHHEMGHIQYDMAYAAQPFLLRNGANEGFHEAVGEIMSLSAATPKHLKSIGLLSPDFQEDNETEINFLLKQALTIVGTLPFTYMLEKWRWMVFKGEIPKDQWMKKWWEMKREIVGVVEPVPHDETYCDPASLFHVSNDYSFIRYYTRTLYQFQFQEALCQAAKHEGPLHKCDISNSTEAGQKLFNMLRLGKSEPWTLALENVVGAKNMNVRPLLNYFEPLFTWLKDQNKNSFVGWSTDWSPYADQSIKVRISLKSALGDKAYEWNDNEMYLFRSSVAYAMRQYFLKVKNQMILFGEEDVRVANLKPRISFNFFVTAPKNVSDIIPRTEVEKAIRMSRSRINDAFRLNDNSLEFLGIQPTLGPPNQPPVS
The nature of data set [5]: In vivo lung biodistribution after intratracheal instillation (fluorescence imaging, confocal microscopy). As to conditions: administrated intratracheally.
Description: To monitor DIVC-6 siRNA biodistribution, the siRNA was labelled with Cy-5.5.
In vivo lung biodistribution study was performed in healthy 4 weeks old male C57BL/6J mice. Single dose of peptides or peptide/siRNA complexes were administrated via intratracheal instillation (200 μg) (Table 20). The fluorescence was evaluated by non-invasive in vivo whole-body fluorescence imaging at T0, 1 h, 2 h, 6 h, 24 h, 48 h and 72 hr post injection. Fluorescence images were acquired with the IVIS kinetic system (PerkinElmer) (ex: 640±17 nm; em: 680±10 nm) and semi-quantitative data were obtained from the fluorescence images by using the Living image software (Caliper 2D).
Further analysis of the lung distribution of the different compounds was performed by confocal microscopy. Lungs were collected at 4 hr, 24 hr and 72 hr post administration, fixed in formaldehyde 4% in Glucose 5%. Tissues were stained with Mito tracker red and nucleus with Hoesch.
Data set [6] is described as follows: Nanoparticle formation of peptides with ADGN-106: mean size and polydispersity (Zetasizer). It counts as physicochemical. As to conditions: 25° C. The source says: We then tested the ability of the different peptides to form nanoparticle organization in the presence of ADGN-106 or ADGN-100 peptide. […] Peptides were complexed with 5 or 10 molar excess of ADGN-106.

A short description of data set [7]: in vitro. As to conditions: uninfected Vero E6 cells.
The nature of data set [8]: Lung and liver toxicity studies after intratracheal instillation. As to conditions: mouse, in vivo. The method, then: Single dose of peptides or peptide/siRNA complexes were administrated via intratracheal instillation (200 μg) (Table 20). Saline solution was used as negative control. Samples were collected 12, 24, 48 and 72 hr post administration.
The body weight of the mice were recorded before intratracheal instillation (day 0), at day1, day 2 and before being sacrificed (day 3). The lung, liver, heart, kidney and brain were collected at day 3 and organ index were determined.
Bronchoalveolar lavage (BAL) were performed 2 days after instillation. The percentage of the cells, the total protein and level of LDH in the BAL were analyzed.
AST and ALT levels in the plasma were assayed 2 days after instillation.

As usually defined, the IC50 is the midpoint of a concentration-inhibition curve. The CC50 is the concentration at which the toxic effect on the cells reaches its halfway point. A lower CC50 goes with harm at low concentration. What is called viability is the share of living cells, or the viability signal relative to a control. High values mean better survival, low ones a greater loss of cells.

Sequence of SARS-CoV-2 Spike: ACE2 interaction (Q9BYF1 18-740, one chain of several): as above

As to `CC(=O)N[C@@H](CCC(=O)O)C(=O)N[C@@H](CCC(N)=O)C(=O)N[C@@H](C)C(=O)N[C@@H](CCCCN)C(=O)N[C@H](C(=O)N[C@@H](Cc1ccccc1)C(=O)N[C@@H](CC(C)C)C(=O)N[C@@H](CC(=O)O)C(=O)N[C@@H](CCCCN)C(=O)N[C@@H](Cc1ccccc1)C(=O)N[C@@H](CC(N)=O)C(=O)N[C@@H](Cc1c[nH]cn1)C(=O)N[C@@H](CCC(=O)O)C(=O)N[C@@H](C)C(=O)N[C@@H](CCC(=O)O)C(=O)N[C@@H](CC(=O)O)C(=O)N[C@@H](CC(C)C)C(=O)N[C@@H](Cc1ccccc1)C(=O)NCCCCCC(=O)N[C@@H](CC(C)C)C(=O)N[C@@H](Cc1c[nH]c2ccccc12)C(=O)N[C@@H](CCCNC(=N)N)C(=O)N[C@@H](C)C(=O)N[C@@H](CC(C)C)C(=O)N[C@@H](Cc1c[nH]c2ccccc12)C(=O)N[C@@H](CCCNC(=N)N)C(=O)N[C@@H](CC(C)C)C(=O)N[C@@H](Cc1c[nH]c2ccccc12)C(=O)N[C@@H](CCCNC(=N)N)C(=O)N[C@@H](CO)C(=O)N[C@@H](CC(C)C)C(=O)N[C@@H](Cc1c[nH]c2ccccc12)C(=O)N[C@@H](CCCNC(=N)N)C(=O)N[C@@H](CC(C)C)C(=O)N[C@@H](CC(C)C)C(=O)N[C@@H](Cc1c[nH]c2ccccc12)C(=O)N[C@@H](CCCCN)C(N)=O)[C@@H](C)O` [Seq33], the IC50 in data set [1] (read-out: SARS-COV2 IC50, original strain, second Table 19, siRNA complexed at molar ratio 1/20) amounted to 21.7 ± 8 nM. In data set [1] (treatments added to Vero-E6 immediately prior to virus infection, Table 16), this molecule gave an IC50 of 22.9 ± 8 nM. Besides, in data set [2], the “folds more potent than SBP-1-ADGN-106/ADGN-106 complex” value is 4 folds, the “folds more potent than SBP-1 coupled to ADGN-106” value turned out to be 8 folds, the “folds more potent than SBP-1 peptide/ADGN-106 complex” value came to 35 folds and the “folds more potent than free SBP-1” value turned out to be 14 folds. In addition, the IC50 in data set [2] (SARS-CoV-2 Spike:ACE2 IC50) was 178 ± 14 nM. In data set [3], the “Residual Infection (%)” value came to 15%, the “fold stronger anti-SARS-CoV-2 activity than hydroxychloroquine sulfate” value was found to be 250 fold, the “increase of potency by pre-incubation with SARS CoV-2 prior infection” value is given as 2 factor and the “inhibition of viral infection” value is listed as “exhibit inhibition of viral infection”. In addition, half-maximal inhibition in data set [4] (IC50) required 18.4 ± 11 nM. Further, the “lung targeting and tissue penetration” value in data set [5] is given as “significantly penetrate lung tissue”. Further, the “Mean Size (nm)” value in data set [6] (peptide/ADGN-106 complexes) came out at 45.9 ± 10 nm. In data set [6] (polydispersity index of peptide/ADGN-106 complexes), the PI turned out to be 0.24. In addition, in data set [7], it took 510000 ± 31000 nM to reach half-maximal cytotoxicity (CC50) and the viability at 0.5 µM was 94%. In addition, in data set [8], the “lung and liver toxicity associated to treatment” value was “no lung and liver toxicity”; the “tolerability upon intratracheal administration” value is listed as “well tolerated”.
